Patent publication US7713994B2 (Wyeth LLC, priority 2005, dated 2010)
Where two headings read alike, the source gives them in different places.

Tests used:
HCT-116 = test: Cytotoxicity assay (SRB), HCT-116; format: cell-based; conditions: Homo sapiens, HCT-116, 72 h, read-out: In Vitro Cellular Activity IC50 HCT116
Method in brief: (§1)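 Cells seeded overnight at 37 °C, 7% CO2 (BT474 12000, HCT-116 4000, LoVo and MCF-7 6000 cells/well) in RPMI 1640 with 5% FBS, then exposed to compound dilutions for 3 days (BT474 6 days). Survival versus untreated controls by TCA fixation and SRB staining, absorbance 540 nm.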

cyclin E/CDK2 enzyme = target: T1, cyclin E/CDK2 enzyme (Homo sapiens, UniProt P24941); test: CDK2 ELISA kinase assay (phospho-Rb ser 795 detection); format: biochemical; conditions: In Vitro Enzyme Assays, read-out: CDK2 IC50
T1 construct: made in house; host or cells: Sf9 insect cells, recombinant baculovirus
Method in brief: (§2)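 Sf9-derived cyclin/CDK, 200 μM ATP, immobilized GST-Rb; 30° C/1 h. Detection: phospho-Ser795 Ab, HRP, TMB, OD450.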

cyclin B/CDK1 enzyme = target: T2, cyclin B/CDK1 enzyme (Homo sapiens, UniProt P06493); test: CDK1 ELISA kinase assay (phospho-Rb ser 795 detection); format: biochemical; conditions: In Vitro Enzyme Assays, read-out: CDK1 IC50
T2 construct: purchased New England BioLabs; host or cells: Sf9 insect cells, recombinant baculovirus
T2 sequence (P06493 whole entry): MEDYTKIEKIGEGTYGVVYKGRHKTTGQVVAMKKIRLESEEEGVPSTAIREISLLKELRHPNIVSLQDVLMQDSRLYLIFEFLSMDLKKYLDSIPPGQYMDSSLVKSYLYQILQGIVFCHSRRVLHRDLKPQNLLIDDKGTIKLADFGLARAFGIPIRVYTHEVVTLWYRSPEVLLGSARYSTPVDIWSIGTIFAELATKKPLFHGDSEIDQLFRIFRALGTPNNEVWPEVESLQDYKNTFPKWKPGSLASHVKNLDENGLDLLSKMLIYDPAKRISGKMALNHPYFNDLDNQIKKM
T2 sequence (P14635 whole entry partner): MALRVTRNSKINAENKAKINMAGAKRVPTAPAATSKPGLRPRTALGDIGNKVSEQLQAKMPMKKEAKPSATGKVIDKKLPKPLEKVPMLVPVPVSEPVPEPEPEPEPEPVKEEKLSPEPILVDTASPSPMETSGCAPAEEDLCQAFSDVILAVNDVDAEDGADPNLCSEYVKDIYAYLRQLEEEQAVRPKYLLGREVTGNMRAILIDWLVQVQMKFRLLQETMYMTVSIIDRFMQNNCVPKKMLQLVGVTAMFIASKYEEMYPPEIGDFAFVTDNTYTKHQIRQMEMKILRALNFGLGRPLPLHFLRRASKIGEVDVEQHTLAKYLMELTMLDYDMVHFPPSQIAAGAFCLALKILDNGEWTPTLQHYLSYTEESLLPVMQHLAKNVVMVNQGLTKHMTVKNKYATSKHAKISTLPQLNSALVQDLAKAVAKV
Method in brief: as §2

BT474 = test: Cytotoxicity assay (SRB), BT474; format: cell-based; conditions: Homo sapiens, BT-474, 144 h, read-out: In Vitro Cellular Activity IC50 BT474
Method in brief: as §1

MCF-7 = test: Cytotoxicity assay (SRB), MCF-7; format: cell-based; conditions: Homo sapiens, MCF7, 72 h, read-out: In Vitro Cellular Activity IC50 MCF-7
Method in brief: as §1

cyclin D1/cdk 4 enzyme = target: T3, cyclin D1/cdk 4 enzyme (Homo sapiens, UniProt P11802); test: CDK4 ELISA kinase assay (phospho-Rb ser 795 detection); format: biochemical; conditions: In Vitro Enzyme Assays, 200 μM ATP, read-out: CDK4 IC50
T3 construct: made in house; host or cells: Sf9 insect cells, recombinant baculovirus
T3 sequence (P11802 whole entry, species assumed): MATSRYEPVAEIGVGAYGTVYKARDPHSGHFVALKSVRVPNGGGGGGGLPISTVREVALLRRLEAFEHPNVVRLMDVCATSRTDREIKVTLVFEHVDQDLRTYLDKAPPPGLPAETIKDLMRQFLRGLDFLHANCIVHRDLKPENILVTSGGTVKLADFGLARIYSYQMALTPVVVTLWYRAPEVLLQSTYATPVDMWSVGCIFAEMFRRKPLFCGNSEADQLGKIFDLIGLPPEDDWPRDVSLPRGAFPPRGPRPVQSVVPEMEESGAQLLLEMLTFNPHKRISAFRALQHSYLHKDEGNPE
T3 sequence (P24385 whole entry partner, species assumed): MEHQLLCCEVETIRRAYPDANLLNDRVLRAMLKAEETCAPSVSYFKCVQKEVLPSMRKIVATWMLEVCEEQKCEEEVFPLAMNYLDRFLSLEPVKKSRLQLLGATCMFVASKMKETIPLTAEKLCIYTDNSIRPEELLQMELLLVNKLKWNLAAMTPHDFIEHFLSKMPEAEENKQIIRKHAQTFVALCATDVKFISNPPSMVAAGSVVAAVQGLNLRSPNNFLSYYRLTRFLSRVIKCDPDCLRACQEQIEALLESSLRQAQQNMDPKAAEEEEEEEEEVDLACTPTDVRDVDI
Method in brief: as §2

LoVo = test: Cytotoxicity assay (SRB), LoVo; format: cell-based; conditions: Homo sapiens, LoVo, 72 h, read-out: In Vitro Cellular Activity IC50 LOVO
Method in brief: as §1

| SMILES | IC50 (HCT-116; HCT116 cells, SRB, three days) | IC50 (cyclin E/CDK2 enzyme) | IC50 (cyclin B/CDK1 enzyme) | IC50 (BT474; BT474 cells, SRB, 6 days) | IC50 (MCF-7; MCF-7 cells, SRB, three days) | IC50 (cyclin D1/cdk 4 enzyme) | melting point | IC50 (LoVo; LoVo cells, SRB, three days) | IC50 (HCT-116; HCT116 cells, 3 days, SRB) | IC50 (BT474; BT474 cells, 6 days, SRB) | IC50 (MCF-7; MCF-7 cells, 3 days, SRB) | IC50 (LoVo; LoVo cells, 3 days, SRB) | IC50 (HCT-116) | IC50 (BT474) | IC50 (MCF-7) | IC50 (LoVo) |
| --- | --- | --- | --- | --- | --- | --- | --- | --- | --- | --- | --- | --- | --- | --- | --- | --- |
| O=C1NC(=O)c2ccc(-c3ccsc3)cc2/C1=C/Nc1cc(F)c(N2CCN3CCC[C@H]3C2)c(F)c1 [Example 371, (4Z)-4-[({3,5-Difluoro-4-[(8aS)-hexahydropyrrolo[1,2-a]pyrazin-2(1H)-yl]phenyl}amino)-methylene]-6-thien-3-ylisoquinoline-1,3(2H,4H)-dione] | 1100 nM | > 50000 nM | > 50000 nM | 3100 nM | 4100 nM | 100 nM | 190 to 191 °C | 2800 nM |  |  |  |  |  |  |  |  |
| C[C@@H]1CN(c2ccc(N/C=C3\C(=O)NC(=O)c4ccc(Br)cc43)cc2C(F)(F)F)C[C@H](C)N1 [Example 372, (4Z)-6-Bromo-4-({[4-[(3R,5S)-3,5-dimethylpiperazin-1-yl]-3-(trifluoromethyl)phenyl]amino}methylene)isoquinoline-1,3(2H,4H)-dione] | 1200 nM | 20200 nM | > 50000 nM | 2900 nM | 3200 nM | > 50000 nM | 224 to 225 °C | 1400 nM |  |  |  |  |  |  |  |  |
| C[C@@H]1CN(c2ccc(N/C=C3\C(=O)NC(=O)c4ccc(-c5ccoc5)cc43)cc2)C[C@H](C)N1C(=O)CN(C)C [Example 373, (4Z)-4-[({4-[(3R,5S)-4-(N,N-Dimethylglycyl)-3,5-dimethylpiperazin-1-yl]phenyl}amino)methylene]-6-(3-furyl)isoquinoline-1,3(2H,4H)-dione] | 750 nM | > 50000 nM | > 50000 nM | 3500 nM | 2100 nM | 10 nM | 191 to 192 °C | 1900 nM |  |  |  |  |  |  |  |  |
| C[C@@H]1CN(c2ccc(N/C=C3\C(=O)NC(=O)c4ccc(-c5ccsc5)cc43)cc2)C[C@H](C)N1C(=O)CN(C)C [Example 380, (4Z)-4-[({4-[(3R,5S)-4-(N,N-Dimethylglycyl)-3,5-dimethylpiperazin-1-yl]phenyl}amino)methylene]-6-thien-3-ylisoquinoline-1,3(2H,4H)-dione] | 500 nM | > 50000 nM | 42500 nM | 9100 nM | 3400 nM | 100 nM | 198 to 199 °C | 8200 nM |  |  |  |  |  |  |  |  |
| C[C@@H]1CN(c2c(F)cc(N/C=C3\C(=O)NC(=O)c4ccc(Br)cc43)cc2F)C[C@H](C)N1 [Example 381, (4Z)-6-Bromo-4-[({4-[(3R,5S)-3,5-dimethylpiperazin-1-yl]-3,5-difluorophenyl}amino)-methylene]isoquinoline-1,3(2H,4H)-dione] | 2000 nM | 3100 nM | > 50000 nM | 3000 nM | 4300 nM | 13200 nM | 187 to 188 °C | 3400 nM |  |  |  |  |  |  |  |  |
| O=C1NC(=O)c2ccc(-c3ccsc3)cc2/C1=C/Nc1ccc(N2CCN3CCC[C@H]3C2)c(F)c1 [Example 382, (4Z)-4-[({3-Fluoro-4-[(8aS)-hexahydropyrrolo[1,2-a]pyrazin-2(1H)-yl]phenyl}amino)-methylene]-6-thien-3-ylisoquinoline-1,3(2H,4H)-dione] | 1200 nM | > 50000 nM | > 50000 nM | 2700 nM | 2700 nM | 290 nM | 208 to 209 °C | 3700 nM |  |  |  |  |  |  |  |  |
| C[C@@H]1CN(c2c(F)cc(N/C=C3\C(=O)NC(=O)c4ccc(-c5ccsc5)cc43)cc2F)C[C@H](C)N1 [Example 383, (4Z)-4-[({4-[(3R,5S)-3,5-Dimethylpiperazin-1-yl]-3,5-difluorophenyl}amino)methylene]-6-thien-3-ylisoquinoline-1,3(2H,4H)-dione] | 840 nM | 25900 nM | 14400 nM | 1300 nM | 2100 nM | 450 nM | 195 to 196 °C | 2600 nM |  |  |  |  |  |  |  |  |
| COC1CCN(Cc2ccc(N/C=C3\C(=O)NC(=O)c4ccc(I)cc43)cc2)CC1 [Example 394, (4Z)-6-Iodo-4-[({4-[(4-methoxypiperidin-1-yl)methyl]phenyl}amino)methylene]isoquinoline-1,3(2H,4H)-dione] |  | > 50000 nM | > 50000 nM |  |  | 210 nM | 199 to 200 °C |  | 3700 nM | 4030 nM | 2600 nM | 3700 nM |  |  |  |  |
| COC1CCN(Cc2ccc(N/C=C3\C(=O)NC(=O)c4ccc(-c5ccc(F)cc5)cc43)cc2)CC1 [Example 395, (4Z)-6-(4-Fluorophenyl)-4-[({4-[(4-methoxypiperidin-1-yl)methyl]phenyl}amino)methylene]isoquinoline-1,3(2H,4H)-dione] |  | > 50000 nM | > 50000 nM |  |  | 140 nM | 188 to 189 °C |  | 2300 nM | 1490 nM | 1400 nM | 2800 nM |  |  |  |  |
| O=C1NC(=O)c2ccc(Br)cc2/C1=C/Nc1ccc(N2CCC(N3CCCC3)CC2)c(F)c1 [Example 405, (4Z)-6-Bromo-4-({[3-fluoro-4-(4-pyrrolidin-1-ylpiperidin-1-yl)phenyl]amino}-methylene)-isoquinoline-1,3(2H,4H)-dione] |  | > 50000 nM | > 50000 nM |  |  | 1800 nM | 204 to 205 °C |  | 1700 nM | 3100 nM | 5600 nM | 2000 nM |  |  |  |  |
| O=C1NC(=O)c2ccc(-c3ccsc3)cc2/C1=C/Nc1ccc(N2CCC(N3CCCC3)CC2)c(F)c1 [Example 406, (4Z)-4-({[3-Fluoro-4-(4-pyrrolidin-1-ylpiperidin-1-yl)phenyl]amino}methylene)-6-thien-3-ylisoquinoline-1,3(2H,4H)-dione] |  | 49700 nM | 31700 nM |  |  | 90 nM | 200 to 201 °C |  | 2600 nM | 3900 nM | 3400 nM | 2700 nM |  |  |  |  |
| O=C1NC(=O)c2ccc(Br)cc2/C1=C/Nc1ccc(N2CCC(N3CCCC3)CC2)nc1 [Example 407, (4Z)-6-Bromo-4-({[6-(4-pyrrolidin-1-ylpiperidin-1-yl)pyridin-3-yl]amino}methylene)isoquinoline-1,3(2H,4H)-dione] |  | > 50000 nM | > 50000 nM |  |  | 1600 nM | 214 to 215 °C |  | 3800 nM | 10200 nM | 9700 nM | 8500 nM |  |  |  |  |
| O=C1NC(=O)c2ccc(-c3ccsc3)cc2/C1=C/Nc1ccc(N2CCC(N3CCCC3)CC2)nc1 [Example 408] |  | > 50000 nM | > 50000 nM |  |  | 120 nM | 203 to 204 °C |  |  |  |  |  | 2500 nM | 2400 nM | 5100 nM | 2600 nM |
